Experimental data taken from patent US9539261B2, “Methods and compositions for stimulating neurogenesis and inhibiting neuronal degeneration” (Neuronascent, Inc., priority 2005, dated 2017).

Key:
mature neurons [1] = assay: inhibition of beta amyloid peptide toxicity in mature neurons; type: cell-based, human
Experimental: In measuring the ability of inhibiting apoptosis, mature neurons (3-4 weeks following initiation of differentiation) were treated with staurosporine to induce apoptosis. A low concentration of staurosporine (10-100 nM) or beta amyloid 1-42 peptide at 1-10 μM or peptide beta amyloid 25-35 at 10-75 μM concentration was used to stimulate apoptosis. At the same time as treating with staurosporine, the neurons were treated with vehicle or one of the test agents. […] Each compound's inhibitory ability was compared with vehicle and staurosporine.
Necrosis of the mature neurons was initiated using beta amyloid 1-42 peptide at 1-10 μM or peptide beta amyloid 25-35 at 10-75 μM concentration. This synthetic peptide was of the same length naturally found in AD brain. Because lactate dehydrogenase (LDH) is released from cells when the plasma membrane is impaired, the cell loss was quantified by the amount of LDH released into the media following a 24-48 hr treatment. The ability of neurogenic agents to reduce the LDH release induced by beta amyloid, versus vehicle control was used as the measurement of inhibition of neuron degeneration.

[2] = tested on: human neuronal progenitors cells; assay: in vitro neurogenesis test (MAP-2 staining, neuron number); type: cell-based; details: MAP-2 staining on day 11; human neuronal progenitors in differentiation media
Experimental: The in vitro neurogenesis test was performed using human neuronal progenitors cells. By way of background, the human neuronal progenitor cells can be cultured in media and have the potential to produce mature functional neurons. The neurogenesis factor in the culture media can promote the number of the progenitor cells which differentiate into neurons. Indeed, it is a widely accepted in vitro model to test a chemical's neurogenetic property.
Cells were obtained as human neuronal progenitors from a commercial source and were grown for up to three passages or at any time differentiated to potentially produce mature functional neurons in culture. Following two passages to expand the cells, progenitors were seeded into multi-well microplates and the media were changed to differentiation media (minus serum and mitogen). Within 2 hrs of this media change, a vehicle, positive control or test compound were added to each well. Also, they were added with every further media change (50% volume change every other day). Control wells contained cells and vehicle (0.2% DMSO in DMEM/F12). […]
The cells were stained using MAP-2, a neuronal marker, on day 11. Then, each test compound was assessed for the ability to promote an increase in neuron number and compared with the positive control, leukemia inhibitory factor (LIF).

mature neurons [3] = assay: LDH assay of neuron degeneration due to hydrogen peroxide toxicity; type: cell-based, human; details: hydrogen peroxide for 8 hrs, vehicle control = 0% inhibition, n = 5 wells

Row | Compound | % Inhibition of beta amyloid peptide toxicity (mature neurons [1]) [%] | increase in the neuron numbers compared with the vehicle control, % of Control [2] | % Inhibition of neuron degeneration due to hydrogen peroxide toxicity (mature neurons [3]) [%]
1 | 4-Benzo-8-aza-bicyclo[3.2.1]oct-3-yl)-3-(2-chloro-phenyl)-thiourea | 68 |  | 
2 | COCCN(Cc1cc2ccc(C)c(C)c2nc1Cl)C(=O)Nc1ccccc1OC [1-(2-Chloro-7,8-dimethyl-quinolin-3-ylmethyl)-1-(2-methoxy-ethyl)-3-(2-methoxy-phenyl)-urea] |  | 132 % of Control | 
3 | COc1ccccc1NC(=S)N1CCCN(c2nc3cc(C)cc(C)c3cc2C#N)CC1 [4-(3-Cyano-5,7-dimethyl-quinolin-2-yl)-[1,4]diazepane-1-carbothioic acid (2-methoxy-phenyl)-amide] | 84 | 110 % of Control | 50
